Test results as given in patent US9808504B2, “Immunogenic epitopes as targets for universal cancer vaccines” (Yale University, priority 2009, dated 2017).

The sequences below were run on freshly isolated human PBMCs (assay: Detection of OCT4 reactive T cells in fresh PBMCs: IP10 in culture supernatant by Luminex). Conditions: PBMCs of 10 healthy donors cultured with individual peptides, 48 h.
Format: cell-based
In the case of GLEKDVVRVWFCNRR [compound 73], the “reactivity to individual peptides (fine specificity)” value (shortened to “reactivity to individual peptides”) is reported as “hot-spots of promiscuous reactivity”.
With AQQLGLEKDVVRVWF [compound 72] the “reactivity to individual peptides” value was “hot-spots of promiscuous reactivity”.
AETLVQARKRKRTSI [compound 61] was tested, and the “reactivity to individual peptides” value was “hot-spots of promiscuous reactivity”.
For EICKAETLVQARKRK [compound 60], the “reactivity to individual peptides” value was “hot-spots of promiscuous reactivity”.
For LSFKNMCKLRPLLQK [compound 53], the “reactivity to individual peptides” value was “hot-spots of promiscuous reactivity”.
NRRQKGKRSSSDYA [compound 76] was tested, and the “reactivity to individual peptides” value was “hot-spots of promiscuous reactivity”.
For KRKRTSIENRVRGNL [compound 63], the “reactivity to individual peptides” value was “hot-spots of promiscuous reactivity”.
For RQKGKRSSSDYAQR [compound 77], the “reactivity to individual peptides” value was “hot-spots of promiscuous reactivity”.
VQARKRKRTSIENRV [compound 62] was tested, and the “reactivity to individual peptides” value was “hot-spots of promiscuous reactivity”.
With NLFLQCPKPTLQQIS [compound 67] the “reactivity to individual peptides” value was “hot-spots of promiscuous reactivity”.
In the case of SHIAQQLGLEKDVVR [compound 71], the “reactivity to individual peptides” value is reported as “hot-spots of promiscuous reactivity”.
For CKLRPLLQKWVEEA [compound 55], the “reactivity to individual peptides” value was “hot-spots of promiscuous reactivity”.
With NRVRGNLENLFLQCP [compound 65] the “reactivity to individual peptides” value was “hot-spots of promiscuous reactivity”.
In the case of LQQISHIAQQLGLEK [compound 70], the “reactivity to individual peptides” value is reported as “hot-spots of promiscuous reactivity”.
In the case of VWFCNRRQKGKRSSS [compound 75], the “reactivity to individual peptides” value is reported as “hot-spots of promiscuous reactivity”.
DVVRVWFCNRRQKGK [compound 74] was tested, and the “reactivity to individual peptides” value was “hot-spots of promiscuous reactivity”.
In the case of NMCKLRPLLQKWV [compound 54], the “reactivity to individual peptides” value is reported as “hot-spots of promiscuous reactivity”.
